{"source": "patent US11478550B2", "about": "“Biodegradable hydrogel and methods for use thereof” (International Business Machines Corporation, priority 2018, dated 2022)", "key": {"[1]": {"tested_on": "Human multiple myeloma (MM.1S) cells", "experiment": "Cytotoxicity test (CellTiter 96 AQueous One)", "format": "cell-based", "settings": "48 h, alone or combined with the hydrogels (FIG. 2)", "procedure": "Human multiple myeloma (MM.1S) cells were seeded at a density of 10×10^3 cells per well onto a 96 well plate and incubated overnight at 37° C. On the day of treatment, the medium was removed and 90 μl of RPMI was added to each well. Following this, 10 μL of the hydrogels or micelles-containing hydrogels were added to the cells. The plate was then incubated for another 48 h at 37° C. Reagents from the CellTiter 96® AQueous One Solution Cell Proliferation Assay Kit (Promega, USA) and RPMI were then mixed at a volume ratio of 1:4 and 100 μL of this mixture was then added to each well and the cells were left to incubate in the dark at 37° C. for 2 h. Untreated cells were then used as the control. Subsequently, the absorbance at 490 nm was measured and the readings were then expressed as a percentage of the cell viability of the control."}, "[2]": {"tested_on": "refractory and/or relapsed MM", "settings": "single agent; cited from earlier work"}, "[3]": {"settings": "cited from earlier work"}}, "note": "Read-outs that look alike come from different tables or passages of the source.", "data": [{"smiles": "CC(C)C[C@H](NC(=O)[C@H](Cc1ccccc1)NC(=O)c1cnccn1)B(O)O", "note": "[BTZ, bortezomib]", "values": [{"measurement": "effect on cell viability", "setting": "[1]", "value": "marked effect on cell viability"}, {"measurement": "1-year overall survival rate", "setting": "[2]", "value": 80, "unit": "%"}, {"measurement": "longer median time to progression compared to dexamethasone", "setting": "[2]", "value": 78, "unit": "%"}, {"measurement": "time to reach mean maximum plasma concentration", "setting": "[3]; intravenous bolus", "value": 3, "unit": "min"}, {"measurement": "time to reach mean maximum plasma concentration", "setting": "[3]; subcutaneous administration", "value": 120, "unit": "min"}]}]}
